From US6432974B1, “Pyrrolo-isoquinoline and tetra-hydropyrrolo-isoquinoline derivatives and their use as mediators of the 5-HT7 receptor” (Wyeth, priority 2000, dated 2002)
Counter-ions that a name gives are not always drawn. Like-named read-outs stand apart in the source and are kept apart here.

Assays:
human 5HT7 receptor = target: T1, human 5HT7 receptor (Homo sapiens, UniProt P34969); experiment: 5-HT7 Receptor Binding Assay ([3H]LSD displacement, CHO cell membranes)
T1 construct: purchased BioSignal Drug Discovery Technology, Montreal, Canada; host or cells: CHO cells (stably transfected), membranes
T1 sequence (P34969 whole entry): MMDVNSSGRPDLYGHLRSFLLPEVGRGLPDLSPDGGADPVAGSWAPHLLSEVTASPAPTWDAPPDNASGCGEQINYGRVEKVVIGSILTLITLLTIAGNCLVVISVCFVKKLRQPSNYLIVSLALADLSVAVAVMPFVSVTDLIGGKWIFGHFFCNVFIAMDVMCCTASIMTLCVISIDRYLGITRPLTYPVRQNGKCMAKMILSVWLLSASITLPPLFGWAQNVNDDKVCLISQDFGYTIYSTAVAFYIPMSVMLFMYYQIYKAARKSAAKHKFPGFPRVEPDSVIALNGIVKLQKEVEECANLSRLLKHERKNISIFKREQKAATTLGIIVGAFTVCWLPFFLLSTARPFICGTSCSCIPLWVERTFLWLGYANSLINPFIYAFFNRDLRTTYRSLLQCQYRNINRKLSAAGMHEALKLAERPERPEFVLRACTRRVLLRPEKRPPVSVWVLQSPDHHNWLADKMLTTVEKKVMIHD

Row | SMILES | melting point [°C] | also measured
1 | NCCc1c[nH]c2cc3c(cc12)C(=O)N(Cc1ccccc1)CC3 (as salt: HCl) (hydrate or solvate) | 262 to 263 | 
2 | NCCc1c[nH]c2cc3c(cc12)C(=O)NCC3 (as salt: salt) (hydrate or solvate) [Compound 1, 3-(2-Amino-ethyl)-1,6,7,8-tetrahydro-pyrrolo[2,3-g]isoquinolin-5-one] | 82 to 86 | 
3 | NCCc1c[nH]c2cc3c(cc12)C(=O)NCC3 [Compound 1, 3-(2-Amino-ethyl)-1,6,7,8-tetrahydro-pyrrolo[2,3-g]isoquinolin-5-one] |  | Ki (human 5HT7 receptor): 14 nM
4 | CN1CCN(C2=Nc3ccccc3Oc3ccc(Cl)cc32)CC1 [Loxapine, reference compound] |  | Ki (human 5HT7 receptor; displacement of [3H]LSD, cloned human 5-HT7 receptor membranes from CHO cells, value with 95% confidence interval, read-out: 5-HT7 binding Ki): 43 nM
